ChEMBL document CHEMBL4507327 (2021)

Assays:
[1] = target: Cyclin-dependent kinase 12 (Homo sapiens, UniProt Q9NYV4); assay: CRK7(CD12PHS1) Takeda global kinase panel
[2] = target: Mitotic checkpoint serine/threonine-protein kinase BUB1 (Homo sapiens, UniProt O43683); assay: Bub1(BUB1LGRL) Takeda global kinase panel
[3] = target: Tyrosine-protein kinase Fer (Homo sapiens, UniProt P16591); assay: Fer(FER1LGY1) Takeda global kinase panel
[4] = target: STE20-related kinase adapter protein alpha (Homo sapiens, UniProt Q7RTN6); assay: STLK5(STRAPHD1) Takeda global kinase panel
[5] = target: MAP/microtubule affinity-regulating kinase 3 (Homo sapiens, UniProt P27448); assay: MARK3(MAR3LGO5) Takeda global kinase panel
Chain of MAP/microtubule affinity-regulating kinase 3 (P27448 whole entry): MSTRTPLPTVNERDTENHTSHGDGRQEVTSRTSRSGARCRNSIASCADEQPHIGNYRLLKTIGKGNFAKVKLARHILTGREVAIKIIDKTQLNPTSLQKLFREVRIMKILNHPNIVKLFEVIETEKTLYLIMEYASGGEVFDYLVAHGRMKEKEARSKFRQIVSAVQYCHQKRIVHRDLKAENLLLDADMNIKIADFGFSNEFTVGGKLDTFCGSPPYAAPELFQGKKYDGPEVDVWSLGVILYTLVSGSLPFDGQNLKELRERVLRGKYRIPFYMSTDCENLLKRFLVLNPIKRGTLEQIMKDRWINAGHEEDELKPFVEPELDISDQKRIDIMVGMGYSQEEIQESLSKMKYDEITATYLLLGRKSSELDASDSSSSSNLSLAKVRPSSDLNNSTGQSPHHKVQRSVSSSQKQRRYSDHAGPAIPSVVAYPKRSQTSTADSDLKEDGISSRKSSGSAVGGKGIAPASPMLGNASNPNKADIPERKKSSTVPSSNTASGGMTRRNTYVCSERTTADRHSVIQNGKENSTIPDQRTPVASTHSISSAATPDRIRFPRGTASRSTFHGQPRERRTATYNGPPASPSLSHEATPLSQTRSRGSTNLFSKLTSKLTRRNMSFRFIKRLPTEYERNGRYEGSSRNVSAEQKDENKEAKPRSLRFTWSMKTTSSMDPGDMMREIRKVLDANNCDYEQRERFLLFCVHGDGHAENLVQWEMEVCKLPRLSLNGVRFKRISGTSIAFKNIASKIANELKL

[6] = target: Ribosomal protein S6 kinase alpha-5 (Homo sapiens, UniProt O75582); assay: MSK1(R6A5LGY1) Takeda global kinase panel
[7] = target: Phosphatidylinositol 4,5-bisphosphate 3-kinase catalytic subunit alpha isoform (Homo sapiens, UniProt P42336); assay: PI3KCA(PI3ACGR1) Takeda global kinase panel
Chain of Phosphatidylinositol 4,5-bisphosphate 3-kinase catalytic subunit alpha isoform (P42336 whole entry, canonical isoform): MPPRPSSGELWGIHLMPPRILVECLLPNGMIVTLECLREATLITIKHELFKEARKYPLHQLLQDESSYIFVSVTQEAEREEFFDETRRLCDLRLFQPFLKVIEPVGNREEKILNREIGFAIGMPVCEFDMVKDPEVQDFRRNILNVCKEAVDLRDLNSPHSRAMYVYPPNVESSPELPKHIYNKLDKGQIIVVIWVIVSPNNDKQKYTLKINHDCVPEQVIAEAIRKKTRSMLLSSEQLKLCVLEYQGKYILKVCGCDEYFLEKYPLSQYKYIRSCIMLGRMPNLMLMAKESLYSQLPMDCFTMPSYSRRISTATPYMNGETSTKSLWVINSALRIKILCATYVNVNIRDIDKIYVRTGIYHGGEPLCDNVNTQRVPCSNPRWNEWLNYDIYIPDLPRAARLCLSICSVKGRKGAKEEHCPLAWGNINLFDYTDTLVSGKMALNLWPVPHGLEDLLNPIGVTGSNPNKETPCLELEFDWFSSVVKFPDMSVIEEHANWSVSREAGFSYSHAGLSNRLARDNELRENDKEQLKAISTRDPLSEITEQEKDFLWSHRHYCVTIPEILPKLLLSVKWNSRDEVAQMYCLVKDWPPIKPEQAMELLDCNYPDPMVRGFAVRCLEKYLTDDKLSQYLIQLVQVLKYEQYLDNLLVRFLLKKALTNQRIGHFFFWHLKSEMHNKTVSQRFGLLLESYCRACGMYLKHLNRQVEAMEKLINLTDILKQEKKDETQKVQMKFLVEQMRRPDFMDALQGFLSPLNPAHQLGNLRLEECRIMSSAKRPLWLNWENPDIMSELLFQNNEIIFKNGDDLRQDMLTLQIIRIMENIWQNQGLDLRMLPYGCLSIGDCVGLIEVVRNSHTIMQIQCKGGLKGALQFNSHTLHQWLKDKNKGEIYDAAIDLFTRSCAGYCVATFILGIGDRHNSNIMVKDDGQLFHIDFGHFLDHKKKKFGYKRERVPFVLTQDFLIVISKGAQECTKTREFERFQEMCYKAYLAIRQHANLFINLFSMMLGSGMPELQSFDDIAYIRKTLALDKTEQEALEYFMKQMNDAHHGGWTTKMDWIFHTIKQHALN

[8] = target: Serine/threonine-protein kinase PAK 4 (Homo sapiens, UniProt O96013); assay: PAK4(PAK4CGY1) Takeda global kinase panel
[9] = target: Dual specificity tyrosine-phosphorylation-regulated kinase 1A (Homo sapiens, UniProt Q13627); assay: DYRK1A(DY1ALGP1) Takeda global kinase panel
[10] = target: Cyclin-dependent kinase 18 (Homo sapiens, UniProt Q07002); assay: PCTAIRE3(CD18SGS1) Takeda global kinase panel
[11] = target: Eukaryotic translation initiation factor 2-alpha kinase 1 (Homo sapiens, UniProt Q9BQI3); assay: HRI(EIK1CGQ1) Takeda global kinase panel
[12] = target: T1, Alpha-1A adrenergic receptor (Homo sapiens) (UniProt P35348); assay: Inhibition of Adrenergic alpha1A at compound concentration of 10.0 uM in the Eurofins-Panlabs radioligand binding assay (Eurofins_assay_203110); set-up: ligand concentration 0.25 nM; details: Rattus norvegicus; Compound concentration 10.0 uM
T1 sequence (whole entry): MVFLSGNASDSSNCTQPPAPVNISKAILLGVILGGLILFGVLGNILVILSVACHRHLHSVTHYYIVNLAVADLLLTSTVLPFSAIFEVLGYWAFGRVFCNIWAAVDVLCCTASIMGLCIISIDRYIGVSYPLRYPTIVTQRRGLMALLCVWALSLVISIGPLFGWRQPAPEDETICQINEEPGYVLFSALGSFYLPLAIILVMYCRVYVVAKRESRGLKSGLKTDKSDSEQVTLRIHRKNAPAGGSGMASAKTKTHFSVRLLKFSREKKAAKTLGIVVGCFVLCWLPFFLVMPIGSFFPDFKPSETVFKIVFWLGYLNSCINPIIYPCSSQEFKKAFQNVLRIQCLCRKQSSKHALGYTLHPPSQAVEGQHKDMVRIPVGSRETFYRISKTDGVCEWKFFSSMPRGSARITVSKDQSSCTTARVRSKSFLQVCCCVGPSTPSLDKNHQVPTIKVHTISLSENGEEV

[13] = target: Cyclin-dependent kinase 9 (Homo sapiens, UniProt P50750); assay: CDK9(CDK9CGS1) Takeda global kinase panel
[14] = target: RAC-gamma serine/threonine-protein kinase (Homo sapiens, UniProt Q9Y243); assay: Akt3 [PKBgamma(AKT3LGY1)] Takeda global kinase panel
Chain of RAC-gamma serine/threonine-protein kinase (Q9Y243 whole entry): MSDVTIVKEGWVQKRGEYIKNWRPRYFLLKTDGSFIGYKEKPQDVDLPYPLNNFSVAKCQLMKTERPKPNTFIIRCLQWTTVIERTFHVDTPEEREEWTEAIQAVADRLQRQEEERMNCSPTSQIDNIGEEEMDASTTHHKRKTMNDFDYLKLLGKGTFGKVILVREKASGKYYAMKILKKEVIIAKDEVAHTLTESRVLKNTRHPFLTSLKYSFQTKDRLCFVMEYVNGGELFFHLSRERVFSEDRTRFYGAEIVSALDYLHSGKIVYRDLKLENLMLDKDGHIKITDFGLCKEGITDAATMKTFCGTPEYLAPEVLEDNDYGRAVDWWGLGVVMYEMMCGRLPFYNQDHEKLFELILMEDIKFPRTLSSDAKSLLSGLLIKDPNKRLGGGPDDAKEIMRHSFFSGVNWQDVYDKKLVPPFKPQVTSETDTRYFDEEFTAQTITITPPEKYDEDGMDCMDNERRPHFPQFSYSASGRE

[15] = target: Serine/threonine-protein kinase 32C (Homo sapiens, UniProt Q86UX6); assay: YANK3(S32CLGI1) Takeda global kinase panel
[16] = target: Protein kinase C alpha type (Homo sapiens, UniProt P17252); assay: PKCalpha(PRKALGY1) Takeda global kinase panel
[17] = target: Phosphatidylinositol 4,5-bisphosphate 3-kinase catalytic subunit delta isoform (Homo sapiens, UniProt O00329); assay: PI3KCD(PI3DCGRK) Takeda global kinase panel
[18] = target: Serine/threonine-protein kinase H1 (Homo sapiens, UniProt P11801); assay: PSKH1(PSH1LGRH) Takeda global kinase panel
[19] = target: GABA-A receptor; anion channel (Rattus norvegicus) (UniProt O09028+P15431+P18506+P18508+P19969+P20236+P23574+P23576+P28471+P28473+P30191+P62813+P63079+P63138+Q91ZM7+Q9ES14); assay: Inhibition of GABAA, Muscimol, Central at 10 µM in the Eurofins-Panlabs radioligand binding assay (Eurofins_assay_226500); format: protein-complex assay; details: Compound concentration 10.0 uM
[20] = target: Sodium-dependent dopamine transporter (Homo sapiens) (UniProt Q01959); details: Compound concentration 10.0 uM
[21] = target: NUAK family SNF1-like kinase 1 (Homo sapiens, UniProt O60285); assay: NuaK1(NUA1LGF5) Takeda global kinase panel
[22] = target: Serine/threonine-protein kinase Sgk2 (Homo sapiens, UniProt Q9HBY8); assay: SGK2(SGK2LGE5) Takeda global kinase panel
Rattus norvegicus = organism: Rattus norvegicus; assay: Inhibition of Glutamate, NMDA, Phencyclidine at 10 µM in the Eurofins-Panlabs radioligand binding assay (Eurofins_assay_233000); format: protein-complex assay; details: Compound concentration 10.0 uM
[23] = target: cAMP-dependent protein kinase catalytic subunit PRKX (Homo sapiens, UniProt P51817); assay: PRKX(PRKXLGH5) Takeda global kinase panel
Chain of cAMP-dependent protein kinase catalytic subunit PRKX (P51817 whole entry): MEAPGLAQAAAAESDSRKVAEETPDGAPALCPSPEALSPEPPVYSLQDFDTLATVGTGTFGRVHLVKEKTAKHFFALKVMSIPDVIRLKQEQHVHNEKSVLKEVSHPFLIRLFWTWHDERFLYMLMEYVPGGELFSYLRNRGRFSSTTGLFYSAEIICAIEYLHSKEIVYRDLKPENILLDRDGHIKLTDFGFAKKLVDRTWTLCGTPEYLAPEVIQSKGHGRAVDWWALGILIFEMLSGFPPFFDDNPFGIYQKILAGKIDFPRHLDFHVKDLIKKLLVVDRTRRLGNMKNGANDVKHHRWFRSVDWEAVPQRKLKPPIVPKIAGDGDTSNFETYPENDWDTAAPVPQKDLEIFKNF

Rhodopsin kinase GRK1 = Rhodopsin kinase GRK1 (Homo sapiens, UniProt Q15835); assay: RHODK [GRK1(GRK1LGA1)] Takeda global kinase panel
Chain of Rhodopsin kinase GRK1 (Q15835 whole entry): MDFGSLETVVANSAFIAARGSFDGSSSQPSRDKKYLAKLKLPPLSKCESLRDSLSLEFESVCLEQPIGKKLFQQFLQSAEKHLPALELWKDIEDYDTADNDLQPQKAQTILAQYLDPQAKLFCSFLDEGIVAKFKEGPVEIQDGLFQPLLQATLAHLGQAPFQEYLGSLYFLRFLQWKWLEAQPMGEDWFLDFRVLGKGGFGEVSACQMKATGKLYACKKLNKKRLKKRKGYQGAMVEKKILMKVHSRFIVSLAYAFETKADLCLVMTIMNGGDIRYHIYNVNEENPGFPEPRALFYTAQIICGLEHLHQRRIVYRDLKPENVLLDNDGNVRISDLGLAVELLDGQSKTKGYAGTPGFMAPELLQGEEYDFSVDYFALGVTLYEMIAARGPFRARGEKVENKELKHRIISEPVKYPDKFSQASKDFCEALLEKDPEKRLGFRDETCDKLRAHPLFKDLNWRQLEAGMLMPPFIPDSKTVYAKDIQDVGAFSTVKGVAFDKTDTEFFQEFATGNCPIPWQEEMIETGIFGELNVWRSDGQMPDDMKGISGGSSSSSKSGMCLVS

[24] = target: Vascular endothelial growth factor receptor 2 (Homo sapiens, UniProt P35968); assay: KDR(KDR1CGY1) Takeda global kinase panel
[25] = target: Serine/threonine-protein kinase Nek1 (Homo sapiens, UniProt Q96PY6); assay: Nek1(NEK1LGY1) Takeda global kinase panel
[26] = target: Rho-associated protein kinase 2 (Homo sapiens, UniProt O75116); assay: ROCK2(ROC2LGG1) Takeda global kinase panel
[27] = target: Casein kinase I isoform gamma-2 (Homo sapiens, UniProt P78368); assay: CK1gamma2(C1G2LGI1) Takeda global kinase panel
[28] = target: Mitogen-activated protein kinase kinase kinase 7 (Homo sapiens, UniProt O43318); assay: TAK1(M3K7CHY1) Takeda global kinase panel
Chain of Mitogen-activated protein kinase kinase kinase 7 (O43318 whole entry): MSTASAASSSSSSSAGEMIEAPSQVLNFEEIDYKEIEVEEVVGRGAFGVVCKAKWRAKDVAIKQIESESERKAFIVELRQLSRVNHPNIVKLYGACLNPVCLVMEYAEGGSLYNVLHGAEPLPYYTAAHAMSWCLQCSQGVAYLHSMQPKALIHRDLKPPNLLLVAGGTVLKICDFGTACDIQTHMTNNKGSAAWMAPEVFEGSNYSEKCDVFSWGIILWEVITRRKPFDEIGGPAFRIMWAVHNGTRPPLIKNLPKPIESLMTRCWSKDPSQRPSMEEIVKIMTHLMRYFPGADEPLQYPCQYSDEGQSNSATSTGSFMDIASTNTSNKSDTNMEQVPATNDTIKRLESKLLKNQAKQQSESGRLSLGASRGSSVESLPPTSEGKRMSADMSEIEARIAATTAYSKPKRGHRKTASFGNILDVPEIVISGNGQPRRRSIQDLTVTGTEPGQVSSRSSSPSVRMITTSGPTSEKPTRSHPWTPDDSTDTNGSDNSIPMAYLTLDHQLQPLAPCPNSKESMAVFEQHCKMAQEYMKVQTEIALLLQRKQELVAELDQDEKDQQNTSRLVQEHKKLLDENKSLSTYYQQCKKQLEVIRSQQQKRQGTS

[29] = target: Serine/threonine-protein kinase VRK1 (Homo sapiens, UniProt Q99986); assay: VRK1(VRK1LGRI) Takeda global kinase panel
[30] = target: Estrogen receptor (Homo sapiens) (UniProt P03372); details: Compound concentration 10.0 uM
Myotonin-protein kinase = Myotonin-protein kinase (Homo sapiens, UniProt Q09013); assay: DMPK(DMPKLGF1) Takeda global kinase panel
[31] = target: Mitogen-activated protein kinase kinase kinase 13 (Homo sapiens, UniProt O43283); assay: LZK(M313LGRJ) Takeda global kinase panel
[32] = target: Cyclin-dependent kinase 6 (Homo sapiens, UniProt Q00534); assay: CDK6(CDK6CGS1) Takeda global kinase panel
[33] = target: Mitogen-activated protein kinase kinase kinase kinase 1 (Homo sapiens, UniProt Q92918); assay: HPK1(M4K1LGY1) Takeda global kinase panel

Chain of Mitotic checkpoint serine/threonine-protein kinase BUB1 (O43683 whole entry): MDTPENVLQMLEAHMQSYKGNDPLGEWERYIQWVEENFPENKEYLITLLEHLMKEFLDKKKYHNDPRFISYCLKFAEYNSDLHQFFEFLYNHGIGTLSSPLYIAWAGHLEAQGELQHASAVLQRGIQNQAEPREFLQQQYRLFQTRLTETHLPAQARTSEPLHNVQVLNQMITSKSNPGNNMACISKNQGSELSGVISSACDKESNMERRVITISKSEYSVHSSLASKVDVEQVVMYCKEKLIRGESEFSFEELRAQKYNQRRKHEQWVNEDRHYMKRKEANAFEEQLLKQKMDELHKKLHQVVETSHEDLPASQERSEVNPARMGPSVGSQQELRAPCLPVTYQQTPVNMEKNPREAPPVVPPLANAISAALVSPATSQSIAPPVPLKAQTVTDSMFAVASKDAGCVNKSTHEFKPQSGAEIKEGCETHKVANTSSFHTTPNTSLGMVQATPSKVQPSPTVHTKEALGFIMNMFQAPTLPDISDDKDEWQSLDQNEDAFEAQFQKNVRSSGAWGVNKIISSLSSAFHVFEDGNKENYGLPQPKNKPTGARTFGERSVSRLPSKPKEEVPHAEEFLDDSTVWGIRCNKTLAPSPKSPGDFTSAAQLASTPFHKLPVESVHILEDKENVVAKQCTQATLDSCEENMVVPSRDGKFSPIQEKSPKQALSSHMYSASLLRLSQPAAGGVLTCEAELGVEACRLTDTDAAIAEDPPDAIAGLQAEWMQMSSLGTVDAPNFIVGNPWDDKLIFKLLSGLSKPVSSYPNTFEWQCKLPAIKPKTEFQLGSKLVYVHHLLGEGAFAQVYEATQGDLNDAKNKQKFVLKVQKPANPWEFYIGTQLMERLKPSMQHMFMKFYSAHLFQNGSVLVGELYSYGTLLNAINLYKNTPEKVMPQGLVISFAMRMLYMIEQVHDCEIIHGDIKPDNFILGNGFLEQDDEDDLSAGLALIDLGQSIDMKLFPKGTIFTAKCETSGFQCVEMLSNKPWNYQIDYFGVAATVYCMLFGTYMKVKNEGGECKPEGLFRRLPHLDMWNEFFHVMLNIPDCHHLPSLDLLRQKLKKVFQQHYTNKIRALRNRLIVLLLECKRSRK

Structure (SMILES)	IC50 [1] [nM]	IC50 [2] [nM]	IC50 [3] [nM]	IC50 [4] [nM]	IC50 [5] [nM]	IC50 [6] [nM]	IC50 [7] [nM]	IC50 [8] [nM]	IC50 [9] [nM]	IC50 [10] [nM]	IC50 [11] [nM]	inhibition [12] [%]	IC50 [13] [nM]	IC50 [14] [nM]	IC50 [15] [nM]	IC50 [16] [nM]	IC50 [17] [nM]	IC50 [18] [nM]	inhibition [19] [%]	inhibition [20] [%]	further results
CN1C(=O)[C@@H](N2CCc3cn(Cc4ccccc4)nc3C2=O)COc2ccccc21 [TP-030-1]	1000	1000	1000	1000	1000	1000	1000	1000	1000	1000	1000	-1	1000	1000	1000	1000	1000	1000	-1	29	IC50 [21]: 1000 nM; IC50 [22]: 1000 nM; inhibition (Rattus norvegicus): -8%; IC50 [23]: 1000 nM; IC50 (Rhodopsin kinase GRK1): 1000 nM; IC50 [24]: 1000 nM; IC50 [25]: 1000 nM; IC50 [26]: 1000 nM; IC50 [27]: 1000 nM; IC50 [28]: 1000 nM; IC50 [29]: 1000 nM; inhibition [30]: 36%; IC50 (Myotonin-protein kinase): 1000 nM; IC50 [31]: 1000 nM; IC50 [32]: 1000 nM; IC50 [33]: 1000 nM
CN1C(=O)[C@@H](N2CCc3cn(CC4CCS(=O)(=O)CC4)nc3C2=O)COc2ccccc21 [TP-030n]	1000	1000	1000	1000	1000	1000	1000	1000	1000	1000	1000	1	1000	1000	1000	1000	1000	1000	-7	10	IC50 [21]: 1000 nM; IC50 [22]: 1000 nM; inhibition (Rattus norvegicus): -9%; IC50 [23]: 1000 nM; IC50 (Rhodopsin kinase GRK1): 1000 nM; IC50 [24]: 1000 nM; IC50 [25]: 1000 nM; IC50 [26]: 1000 nM; IC50 [27]: 1000 nM; IC50 [28]: 1000 nM; IC50 [29]: 1000 nM; inhibition [30]: 5%; IC50 (Myotonin-protein kinase): 1000 nM; IC50 [31]: 1000 nM; IC50 [32]: 1000 nM; IC50 [33]: 1000 nM
